The compounds below were run against T1, Recombinant human EP300 containing the bromodomain (EP300-BD (1040-1161)) (Homo sapiens, UniProt Q09472) (assay: EP300 Alphascreen binding assay).
T1 construct: Recombinant human EP300 bromodomain (EP300-BD (1040-1161)); made in house; host or cells: E. coli BL21-CodonPlus (DE3), modified pET vector
T1 sequence (Q09472 1040-1161): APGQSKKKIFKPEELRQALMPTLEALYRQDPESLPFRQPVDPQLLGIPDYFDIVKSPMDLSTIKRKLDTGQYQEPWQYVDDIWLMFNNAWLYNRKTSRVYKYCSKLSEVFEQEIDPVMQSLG
How it was run: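 Displacement of a biotinylated acetyl-K56 histone H3 peptide from the N-His bromodomain construct (1040-1161) measured by AlphaScreen proximity, beads at 7.5 μg/ml final, read 60 min after addition. Protein, peptide and compound first incubated 1 h at room temperature, pH 7.5 HEPES buffer; IC50 by four-parameter logistic fit.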

Cc1cc(C(=O)O)cnc1-n1cc(CC2CCC2)c2ncc(-c3c(C)noc3C)cc21 [P-0075, 6-(3-(cyclobutylmethyl)-6-(3,5-dimethylisoxazol-4-yl)-1H-pyrrolo[3,2-b]pyridin-1-yl)-5-methylnicotinic acid] and Cc1noc(C)c1-c1cnc2c(CC3CCC3)cn(-c3c(C(=O)O)ccc(Br)c3F)c2c1 [P-0086, 4-bromo-2-(3-(cyclobutylmethyl)-6-(3,5-dimethylisoxazol-4-yl)-1H-pyrrolo[3,2-b]pyridin-1-yl)-3-fluorobenzoic acid] fall in the same range of IC50: 0.1 to 1000 nM for the first, 0.1 to 1000 nM for the second.

First: Cc1noc(C)c1-c1cnc2c(CC3CCC3)cn(-c3ccc(C#N)cc3)c2c1 [P-0076, 4-(3-(cyclobutylmethyl)-6-(3,5-dimethylisoxazol-4-yl)-1H-pyrrolo[3,2-b]pyridin-1-yl)benzonitrile]
Second: Cc1noc(C)c1-c1cnc2c(CC3CCC3)cn(-c3ccnc(C#N)c3)c2c1 [P-0077, 4-(3-(cyclobutylmethyl)-6-(3,5-dimethylisoxazol-4-yl)-1H-pyrrolo[3,2-b]pyridin-1-yl)picolinonitrile]
The IC50 of the first is higher: 1000 to 8000 nM for the first, 0.1 to 1000 nM for the second. The second is the more potent here.

Cc1noc(C)c1-c1cnc2c(c1)c(-c1cccc(C(=O)NC#N)c1)cn2Cc1ccccc1 [P-0078, 3-(1-benzyl-5-(3,5-dimethylisoxazol-4-yl)-1H-pyrrolo[2,3-b]pyridin-3-yl)-N-cyanobenzamide] and Cc1noc(C)c1-c1cnc2c(c1)c(-c1cccc(C(=O)NO)c1)cn2Cc1ccccc1 [P-0079, 3-(1-benzyl-5-(3,5-dimethylisoxazol-4-yl)-1H-pyrrolo[2,3-b]pyridin-3-yl)-N-hydroxybenzamide] fall in the same range of IC50: 0.1 to 1000 nM for the first, 0.1 to 1000 nM for the second.

First: Cc1noc(C)c1-c1cnc2c(c1)c(-c1ccc(C(=O)O)cc1)cn2C(C)c1ccccn1 (stereo not shown) [P-0080, 4-(5-(3,5-dimethylisoxazol-4-yl)-1-(1-(pyridin-2-yl)ethyl)-1H-pyrrolo[2,3-b]pyridin-3-yl)benzoic acid]
Second: Cc1noc(C)c1-c1cnc2c(c1)c(-c1c(F)cc(C(=O)O)cc1F)cn2C(C)c1ccccn1 (stereo not shown) [P-0094, 4-(5-(3,5-dimethylisoxazol-4-yl)-1-(1-(pyridin-2-yl)ethyl)-1H-pyrrolo[2,3-b]pyridin-3-yl)-3,5-difluorobenzoic acid]
The IC50 of the first is higher: 1000 to 8000 nM for the first, 0.1 to 1000 nM for the second.

First: Cc1noc(C)c1-c1cnc2c(c1)c(-c1cccc(S(N)(=O)=O)c1)cn2Cc1ccccc1 [P-0081, 3-(1-benzyl-5-(3,5-dimethylisoxazol-4-yl)-1H-pyrrolo[2,3-b]pyridin-3-yl)benzenesulfonamide]
Second: CNS(=O)(=O)c1cccc(-c2cn(Cc3ccccc3)c3ncc(-c4c(C)noc4C)cc23)c1 [P-0082, 3-(1-benzyl-5-(3,5-dimethylisoxazol-4-yl)-1H-pyrrolo[2,3-b]pyridin-3-yl)-N-methylbenzenesulfonamide]
The IC50 of the first is lower: 0.1 to 1000 nM for the first, 1000 to 8000 nM for the second.

Cc1noc(C)c1-c1cnc2c(c1)c(-c1cccc(S(=O)(=O)NC3CC3)c1)cn2Cc1ccccc1 [P-0083, 3-(1-benzyl-5-(3,5-dimethylisoxazol-4-yl)-1H-pyrrolo[2,3-b]pyridin-3-yl)-N-cyclopropylbenzenesulfonamide] and Cc1noc(C)c1-c1cnc2c(c1)c(-c1cccc(C(=O)NS(C)(=O)=O)c1)cn2Cc1ccccc1 [P-0092, 3-(1-benzyl-5-(3,5-dimethylisoxazol-4-yl)-1H-pyrrolo[2,3-b]pyridin-3-yl)-N-(methylsulfonyl)benzamide] fall in the same range of IC50: 0.1 to 1000 nM for the first, 0.1 to 1000 nM for the second.

Cc1noc(C)c1-c1cnc2c(C(=O)C3CC3)c(O)n(-c3ccnc(C(=O)O)c3)c2c1 [P-0084, 4-(3-(cyclopropanecarbonyl)-6-(3,5-dimethylisoxazol-4-yl)-2-hydroxy-1H-pyrrolo[3,2-b]pyridin-1-yl)picolinic acid] and Cc1noc(C)c1-c1cnc2c(C(=O)c3ccccc3Cl)cn(-c3ccnc(C(=O)O)c3)c2c1 [P-0089, 4-(3-(2-chlorobenzoyl)-6-(3,5-dimethylisoxazol-4-yl)-1H-pyrrolo[3,2-b]pyridin-1-yl)picolinic acid] fall in the same range of IC50: 0.1 to 1000 nM for the first, 0.1 to 1000 nM for the second.

Cc1noc(C)c1-c1cnc2c(c1)c(-c1cccc(C(=O)O)c1)cn2C(=O)c1ccccc1 [P-0085, 3-(1-benzoyl-5-(3,5-dimethylisoxazol-4-yl)-1H-pyrrolo[2,3-b]pyridin-3-yl)benzoic acid] and Cc1noc(C)c1-c1cnc2c(c1)c(C1=CCC(C(=O)O)CC1)cn2Cc1ccccc1 (stereo not shown) [P-0093, 4-(1-benzyl-5-(3,5-dimethylisoxazol-4-yl)-1H-pyrrolo[2,3-b]pyridin-3-yl)cyclohex-3-ene-1-carboxylic acid] fall in the same range of IC50: 0.1 to 1000 nM for the first, 0.1 to 1000 nM for the second.

COc1c(-n2cc(CC3CCC3)c3ncc(-c4c(C)noc4C)cc32)ccc(C(=O)O)c1F [P-0087, 4-(3-(cyclobutylmethyl)-6-(3,5-dimethylisoxazol-4-yl)-1H-pyrrolo[3,2-b]pyridin-1-yl)-2-fluoro-3-methoxybenzoic acid] and Cc1noc(C)c1-c1cnc2c(Cc3ccccc3Cl)cn(-c3ccnc(C(=O)O)c3)c2c1 [P-0091, 4-(3-(2-chlorobenzyl)-6-(3,5-dimethylisoxazol-4-yl)-1H-pyrrolo[3,2-b]pyridin-1-yl)picolinic acid] fall in the same range of IC50: 0.1 to 1000 nM for the first, 0.1 to 1000 nM for the second.

Cc1noc(C)c1-c1cnc2c(C(=O)c3cccc(Cl)c3)cn(-c3ccnc(C(=O)O)c3)c2c1 [P-0088, 4-(3-(3-chlorobenzoyl)-6-(3,5-dimethylisoxazol-4-yl)-1H-pyrrolo[3,2-b]pyridin-1-yl)picolinic acid] and Cc1noc(C)c1-c1cnc2c(Cc3cccc(Cl)c3)cn(-c3ccnc(C(=O)O)c3)c2c1 [P-0090, 4-(3-(3-chlorobenzyl)-6-(3,5-dimethylisoxazol-4-yl)-1H-pyrrolo[3,2-b]pyridin-1-yl)picolinic acid] fall in the same range of IC50: 0.1 to 1000 nM for the first, 0.1 to 1000 nM for the second.

Cc1noc(C)c1-c1cnc2c(c1)c(-c1c(Cl)cc(C(=O)O)cc1Cl)cn2C(C)c1ccccn1 (stereo not shown) [P-0095, 3,5-dichloro-4-(5-(3,5-dimethylisoxazol-4-yl)-1-(1-(pyridin-2-yl)ethyl)-1H-pyrrolo[2,3-b]pyridin-3-yl)benzoic acid] and Cc1noc(C)c1-c1cnc2c(c1)c(-c1c(F)ccc(NS(C)(=O)=O)c1F)cn2C(C)c1ccccn1 (stereo not shown) [P-0096, N-(3-(5-(3,5-dimethylisoxazol-4-yl)-1-(1-(pyridin-2-yl)ethyl)-1H-pyrrolo[2,3-b]pyridin-3-yl)-2,4-difluorophenyl)methanesulfonamide] fall in the same range of IC50: 0.1 to 1000 nM for the first, 0.1 to 1000 nM for the second.
